Test results: US9920069B2, “Compounds for treatment of fluoroquinolone-resistant bacteria” (The Board of Trustees of the University of Illinois, priority 2014, dated 2018)
Values after ≈ are worked out from the molar mass of the structure shown. Where two headings read alike, the source gives them in different places.

Key:
PA1586 = assay: MIC, microdilution broth; type: cell-based, P. aeruginosa; conditions: Pseudomonas aeruginosa
Procedure: (§1) E. coli MG1655 and the ΔAcrB strain were obtained from Prof. Cari Vanderpool at UIUC.
(§2) Susceptibility testing was performed in triplicate using the microdilution broth method as outlined by the Clinical and Laboratory Standards Institute CLSI^52. MH broth was used.

[1] = test system: S. aureus 29213 (WT GyrA and WT ParC); assay: microbe, parasite or virus in culture; type: cell-based; conditions: for MIC: Staphylococcus aureus, WT GyrA and WT ParC, read-out: MIC against S. aureus 29213
Procedure: as §2

MRSA clinical isolates = assay: Panel of MRSA clinical isolates (FIG. 2A); type: cell-based, S. aureus; conditions: n=21, in words
[2] = test system: MRSA clinical isolate SAU.447; assay: MIC, microdilution broth; type: cell-based, S. aureus; conditions: Staphylococcus aureus
Procedure: as §2

[3] = test system: MRSA clinical isolate SAU.3021; assay: MIC, microdilution broth; type: cell-based, S. aureus; conditions: Staphylococcus aureus, MRSA, read-out: MIC
Procedure: as §2

[4] = test system: MRSA clinical isolate SAU.3026; assay: MIC, microdilution broth; type: cell-based, S. aureus; conditions: Staphylococcus aureus, MRSA, read-out: MIC
Procedure: as §2

physchem = conditions: pH 7.4 PBS; three replicates ± SEM
Procedure: Enough PBS was added to make a 1 mg/mL solution. Compounds were then assessed by LC-MS and compared to a calibration curve to determine the solubility. […] Data shown is from three independent replicates±SEM. […] Between DMSO additions, the vial was vortexed and sonicated.
The compound was vortexed for ˜30 seconds before being placed into a bath sonicator (Cole Parmer, ultrasonic cleaner) for 1 h. […] The tubes were vortexed again for 30 s before being centrifuged at maximum speed (13,000×g) for 10 minutes. The supernatant was then filtered through a 0.22 μm syringe filter (Millipore Millex MP). […] Three independent replicates of each compound were performed. A calibration curve for each compound was generated from 1-400 μM by dissolving the compound in DMSO and making dilutions of the stock in DMSO. […] The concentration of the samples was calculated based on the calibration curves.

Enterococcus ATCC 19433 = assay: organism not typed; type: cell-based, E. faecalis; conditions: ATCC 19433, E. faecalis; gyrA WT, parC WT; read-out: MIC
[5] = test system: MRSA clinical isolate SAU.494; assay: microbe, parasite or virus in culture; type: cell-based, S. aureus; conditions: Staphylococcus aureus, read-out: MIC
Procedure: as §2

[6] = test system: MRSA clinical isolate SAU.708; assay: microbe, parasite or virus in culture; type: cell-based, S. aureus; conditions: Staphylococcus aureus, read-out: MIC
Procedure: as §2

[7] = test system: MRSA clinical isolate SAU.496; assay: microbe, parasite or virus in culture; type: cell-based, S. aureus; conditions: Staphylococcus aureus, read-out: MIC
Procedure: as §2

[8] = test system: MRSA clinical isolate SAU.493; assay: microbe, parasite or virus in culture; type: cell-based, S. aureus; conditions: Staphylococcus aureus, read-out: MIC
Procedure: as §2

[9] = test system: MRSA clinical isolate SAU.489; assay: microbe, parasite or virus in culture; type: cell-based, S. aureus; conditions: Staphylococcus aureus, read-out: MIC
Procedure: as §2

[10] = test system: MRSA clinical isolate SAU.709; assay: microbe, parasite or virus in culture; type: cell-based, S. aureus; conditions: Staphylococcus aureus, read-out: MIC
Procedure: as §2

[11] = test system: MRSA clinical isolate SAU.710; assay: microbe, parasite or virus in culture; type: cell-based, S. aureus; conditions: Staphylococcus aureus, read-out: MIC
Procedure: as §2

[12] = test system: MRSA clinical isolate SAU.491; assay: microbe, parasite or virus in culture; type: cell-based, S. aureus; conditions: Staphylococcus aureus, read-out: MIC
Procedure: as §2

[13] = test system: MRSA clinical isolate SAU.495; assay: microbe, parasite or virus in culture; type: cell-based, S. aureus; conditions: Staphylococcus aureus, read-out: MIC
Procedure: as §2

[14] = test system: MRSA clinical isolate SAU.492; assay: microbe, parasite or virus in culture; type: cell-based, S. aureus; conditions: Staphylococcus aureus, read-out: MIC
Procedure: as §2

E. coli ATCC 25922 = assay: microbe, parasite or virus in culture; type: cell-based; conditions: Escherichia coli, ATCC25922, gyrA none, parC none
Procedure: as §1, §2

A. baumannii ATCC 19606 = assay: microbe, parasite or virus in culture; type: cell-based; conditions: Acinetobacter baumannii, ATCC19606, gyrA none, parC none
Procedure: as §1, §2

P. aeruginosa PAO1 = assay: microbe, parasite or virus in culture; type: cell-based; conditions: Pseudomonas aeruginosa, gyrA none, parC none
Procedure: as §1, §2

VRE clinical isolates = assay: Panel of VRE clinical isolates (FIG. 2B); type: cell-based, Enterococcus; conditions: n=22, in words
WT E. coli DNA gyrase = molecular target: T1, WT E. coli DNA gyrase (Escherichia coli, UniProt P0AES4); type: biochemical; conditions: in words
T1 construct: His tag (pTrcHisA vector, purified on Ni-NTA); made in house; host or cells: E. coli One Shot BL21 Star (DE3)

[15] = test system: VRE clinical isolate S206; assay: organism not typed; type: cell-based, E. faecalis
Procedure: (§3) QRDR mutations were determined as described in the text using primers (primer sequences can be found in Table 7).
as §2

Enterococcus ATCC 29212 = assay: organism not typed; type: cell-based, E. faecalis; conditions: ATCC 29212, E. faecalis, gyrA WT, parC WT
[16] = test system: VRE clinical isolate C28036; assay: microbe, parasite or virus in culture; type: cell-based, Ent. Spp.; conditions: Enterococcus
Procedure: as §3, §2

in vivo = conditions: female, C57BL/6, mouse, po
Procedure: As a prelude to exploring in vivo efficacy, the toxicity and pharmacokinetic profile of DNM and key derivatives was evaluated.
The animal studies (PK, in vivo toxicity and in vivo efficacy) were carried out in strict accordance with the recommendations in the Guide for the Care and Use of Laboratory Animals of the National Institutes of Health. […] In these studies, 10-12 week old female C57BL/6 mice purchased from Charles River were used. DNM, DNM-2, and DNM-3 were formulated as slurries at 8.3 mg mL^−1 in 25% Cremophor RH40/water (v/v). Before beginning the pharmacokinetic assessment, mice were first tested for their ability to tolerate the DNM, DNM-2, and DNM-3 at 50 mg kg^−1 (p.o.). […] . At specified time points, mice were sacrificed and blood was collected, centrifuged, and the serum was frozen at −80° C. until analysis. The proteins in a 50 μL aliquot of serum were precipitated by the addition of 50 μL of acetonitrile and the sample was centrifuged to remove the proteins. Serum concentrations of DNM, DNM-2, and DNM-3 were determined by HPLC. PK parameters were determined using GraphPad Prism Version 5.00 for Windows.

T1 sequence (P0AES4 whole entry): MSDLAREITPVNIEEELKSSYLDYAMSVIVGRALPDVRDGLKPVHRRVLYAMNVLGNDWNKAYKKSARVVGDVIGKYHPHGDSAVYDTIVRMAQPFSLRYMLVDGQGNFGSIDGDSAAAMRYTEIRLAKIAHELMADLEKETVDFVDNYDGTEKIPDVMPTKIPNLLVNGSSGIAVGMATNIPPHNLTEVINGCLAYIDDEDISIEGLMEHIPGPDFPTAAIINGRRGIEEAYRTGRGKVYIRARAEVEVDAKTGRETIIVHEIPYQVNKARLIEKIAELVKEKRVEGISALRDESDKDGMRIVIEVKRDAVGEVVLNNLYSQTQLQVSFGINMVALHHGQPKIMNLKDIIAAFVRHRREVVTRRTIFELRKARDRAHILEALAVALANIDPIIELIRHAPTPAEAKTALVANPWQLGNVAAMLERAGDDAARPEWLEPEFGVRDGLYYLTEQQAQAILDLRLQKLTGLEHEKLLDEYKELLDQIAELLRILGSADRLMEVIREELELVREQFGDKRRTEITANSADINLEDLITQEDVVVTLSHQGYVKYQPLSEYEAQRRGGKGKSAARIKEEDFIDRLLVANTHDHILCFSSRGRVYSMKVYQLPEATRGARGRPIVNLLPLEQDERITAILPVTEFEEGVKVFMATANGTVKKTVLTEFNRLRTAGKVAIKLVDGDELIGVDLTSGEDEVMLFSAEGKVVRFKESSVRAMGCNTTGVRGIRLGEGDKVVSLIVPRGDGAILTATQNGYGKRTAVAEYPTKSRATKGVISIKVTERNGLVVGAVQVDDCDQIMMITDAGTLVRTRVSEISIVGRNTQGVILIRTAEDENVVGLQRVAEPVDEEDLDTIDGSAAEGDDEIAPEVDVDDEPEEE

With `Cc1cc(=O)n(C)c2c3c4c(cc12)c(C)cc(=O)n4CO3` [DNM, deoxynybomycin] the MIC (PA1586) was greater than 4 µg/mL, the MIC [1] was greater than 1 µg/mL and the “activity against FQ-sensitive strain 29213” value ([1]; in words) was “modest activity”. For the same compound, the “sensitivity of MRSA clinical isolates” value (MRSA clinical isolates) was “sensitive”, the MIC [2] was 0.063 µg/mL (≈ 0.223 µM) and the MIC [3] was 0.031 µg/mL (≈ 0.11 µM). The MIC [4] was 0.125 µg/mL (≈ 0.443 µM), the “Solubility in pH 7.4 PBS” value (physchem) was 9 μM and the MIC (Enterococcus ATCC 19433) was greater than 1 µg/mL. For the same compound, the MIC [5] was 0.063 µg/mL (≈ 0.223 µM), the MIC [6] was 0.063 µg/mL (≈ 0.223 µM) and the MIC [7] was 0.063 µg/mL (≈ 0.223 µM). It also gave an MIC [8] of 0.063 µg/mL (≈ 0.223 µM), an MIC [9] of 0.031 µg/mL (≈ 0.11 µM) and an MIC [10] of 0.063 µg/mL (≈ 0.223 µM). The MIC [11] was 0.031 µg/mL (≈ 0.11 µM), the MIC [12] was 0.125 µg/mL (≈ 0.443 µM) and the MIC [13] was 0.063 µg/mL (≈ 0.223 µM). The MIC [14] was 0.063 µg/mL (≈ 0.223 µM), the MIC (E. coli ATCC 25922) was greater than 4 µg/mL and the MIC (A. baumannii ATCC 19606) was greater than 4 µg/mL. For the same compound, the MIC (P. aeruginosa PAO1) was greater than 4 µg/mL, the “sensitivity of VRE clinical isolates” value (VRE clinical isolates) was “sensitive” and the “inhibition of WT DNA gyrase” value (WT E. coli DNA gyrase) was “poor inhibitors of WT DNA gyrase”. For the same compound, the MIC [15] was 1 µg/mL (≈ 3.54 µM), the MIC (Enterococcus ATCC 29212) was greater than 1 µg/mL and the MIC (Enterococcus ATCC 29212; read-out: MIC) was greater than 1 µg/mL. For the same compound, the MIC [16] was 0.25 µg/mL (≈ 0.886 µM) and the MTD (in vivo) was greater than 50 mg/kg.

For `CCn1c(=O)cc(C)c2cc3c(C)cc(=O)n4c3c(c21)OC4` [DNM-2], the MIC (PA1586) was greater than 24 µg/mL, the MIC [1] was 8 µg/mL (≈ 27 µM) and the “sensitivity of MRSA clinical isolates” value (MRSA clinical isolates) was “sensitive”. The MIC [2] was 0.125 µg/mL (≈ 0.422 µM), the MIC [3] was 0.063 µg/mL (≈ 0.213 µM) and the MIC [4] was 0.125 µg/mL (≈ 0.422 µM). For the same compound, the “Solubility in pH 7.4 PBS” value (physchem) was 121 μM, the MIC (Enterococcus ATCC 19433) was 8 µg/mL (≈ 27 µM) and the MIC [5] was 0.125 µg/mL (≈ 0.422 µM). The MIC [6] was 0.125 µg/mL (≈ 0.422 µM), the MIC [7] was 0.125 µg/mL (≈ 0.422 µM) and the MIC [8] was 0.125 µg/mL (≈ 0.422 µM). For the same compound, the MIC [9] was 0.125 µg/mL (≈ 0.422 µM), the MIC [10] was 0.125 µg/mL (≈ 0.422 µM) and the MIC [11] was 0.063 µg/mL (≈ 0.213 µM). The MIC [12] was 0.125 µg/mL (≈ 0.422 µM), the MIC [13] was 0.125 µg/mL (≈ 0.422 µM) and the MIC [14] was 0.125 µg/mL (≈ 0.422 µM). It also gave an MIC (E. coli ATCC 25922) greater than 24 µg/mL, an MIC (A. baumannii ATCC 19606) greater than 24 µg/mL and an MIC (P. aeruginosa PAO1) greater than 24 µg/mL. For the same compound, the “sensitivity of VRE clinical isolates” value (VRE clinical isolates) was “sensitive”, the “inhibition of WT DNA gyrase” value (WT E. coli DNA gyrase) was “poor inhibitors of WT DNA gyrase” and the MIC [15] was 2 µg/mL (≈ 6.75 µM). For the same compound, the MIC (Enterococcus ATCC 29212; read-out: MIC) was 8 µg/mL (≈ 27 µM), the MIC [16] was 0.5 µg/mL (≈ 1.69 µM) and the MTD (in vivo) was greater than 50 mg/kg.
